Measurements as given in patent US20240150377A1, “MODULATORS OF CYSTIC FIBROSIS TRANSMEMBRANE CONDUCTANCE REGULATOR” (VERTEX PHARMACEUTICALS INCORPORATED, priority 2020, published 2024).
Where two headings read alike, the source gives them in different places.

Biological target: CFTR (Homo sapiens, UniProt P13569)
Test: Membrane potential dye, Enteroid Assay B
Assay type: cell-based
Settings: for Ent. B Max Activity: chloride transport as % of triple combination control (Enteroid Assay B); for EC50: read-out: Ent. B EC50
Experimental: Base medium (ADF+++) consisted of Advanced DMEM/Ham's F12, 2 mM Glutamax, 10 mM HEPES, […] penicillin/streptomycin.
Intestinal enteroid maintenance medium (IEMM) consisted of ADF+++, 1× B27 supplement, 1× N2 supplement, 1.25 mM N-acetyl cysteine, 10 mM Nicotinamide, 50 ng/mL hEGF, 10 nM Gastrin, 1 μg/mL hR-spondin-1, 100 ng/mL hNoggin, TGF-b type 1 inhibitor A-83-01, 100 μg/mL Primocin, 10 μM P38 MAPK inhibitor SB202190.
Bath 1 Buffer consisted of 1 mM MgCl2, 160 mM NaCl, 4.5 mM KCl, 10 mM HEPES, 10 mM Glucose, 2 mM CaCl2).
Chloride Free Buffer consisted of 1 mM Magnesium Gluconate, 2 mM Calcium Gluconate, 4.5 mM Potassium Gluconate, 160 mM Sodium Gluconate, 10 mM HEPES, 10 mM Glucose.
BathI Dye Solution consisted of Bath 1 Buffer, 0.04% Pluronic F127, 20 μM Methyl Oxonol, 30 μM CaCCinh-A01, 30 μM Chicago Sky Blue.
Chloride Free Dye Solution consisted of Chloride Free Buffer, 0.04% Pluronic F127, 20 μM Methyl Oxonol, 30 μM CaCCinh-A01, 30 μM Chicago Sky Blue.
Chloride Free Dye Stimulation Solution consisted of Chloride Free Dye Solution, 10 μM forskolin, 100 μM IBMX, and 300 nM Compound III.
Human intestinal epithelial enteroid cells were obtained from the Hubrecht Institute for Developmental Biology and Stem Cell Research, Utrecht, The Netherlands and expanded in T-Flasks as previously described (Dekkers J F, Wiegerinck C L, de Jonge H R, Bronsveld I, Janssens H M, de Winter-de Groot K M, Brandsma A M, de Jong N W M, Bijvelds M J C, Scholte B J, Nieuwenhuis E E S, van den Brink S, Clevers H, van der Ent C K, Middendorp S and M Beekman J M. A functional CFTR assay using primary cystic fibrosis intestinal organoids. Nat Med. 2013 July;19(7):939-45.).
3. Enteroid Cell Harvesting and Seeding
Cells were recovered in cell recovery solution, collected by centrifugation at 650 rpm for 5 min at 4° C., resuspended in TrypLE and incubated for 5 min at 37° C. Cells were then collected by centrifugation at 650 rpm for 5 min at 4° C. and resuspended in IEMM containing 10 μM ROCK inhibitor (RI). The cell suspension was passed through a 40 μm cell strainer and resuspended at 1×10^6 cells/mL in IEMM containing 10 μM RI. Cells were seeded at 5000 cells/well into multi-well plates and incubated for overnight at 37° C., 95% humidity and 5% CO2 prior to assay.
5. Membrane Potential Dye, Enteroid Assay B
Enteroid cells were incubated with test compound in IEMM for 18-24 hours at 37° C., 95% humidity and 5% CO2. […] Briefly, cells were washed 5 times in Bath 1 Buffer. Bath 1 Dye Solution was added and the cells were incubated for 25 min at room temperature. Following dye incubation, cells were washed 3 times in Chloride Free Dye Solution. Chloride transport was initiated by addition of Chloride Free Dye Stimulation Solution and the fluorescence signal was read for 15 min. […] Chloride transport was then expressed as a percentage of the chloride transport following treatment with 1 μM (14S)-8-[3-(2-{Dispiro[2.0.2.1]heptan-7-yl}ethoxy)-1H-pyrazol-1-yl]-12,12-dimethyl-2λ^6-thia-3,9,11,18,23-pentaazatetracyclo[17.3.1.111,14.05,10]tetracosa-1(22),5,7,9,19(23),20-hexaene-2,2,4-trione, 3 μM (R)-1-(2,2-difluorobenzo[d][1,3]dioxol-5-yl)-N-(1-(2,3-dihydroxypropyl)-6-fluoro-2-(1-hydroxy-2-methylpropan-2-yl)-1H-indol-5-yl)cyclopropanecarboxamide and 300 nM acute N-[2,4-bis(1,1-dimethylethyl)-5-hydroxyphenyl]-1,4-dihydro-4-oxoquinoline-3-carboxamide triple combination control (% Activity).

[1] = Table 8, human enteroid cells, 18-24 hours, acute 10 μM forskolin and 300 nM ivacaftor
[2] = Table 7, human enteroid cells, 18-24 hours, acute 10 μM forskolin and 300 nM ivacaftor

Chain of CFTR (P13569 with tags, fused parts or gaps DEL508-508): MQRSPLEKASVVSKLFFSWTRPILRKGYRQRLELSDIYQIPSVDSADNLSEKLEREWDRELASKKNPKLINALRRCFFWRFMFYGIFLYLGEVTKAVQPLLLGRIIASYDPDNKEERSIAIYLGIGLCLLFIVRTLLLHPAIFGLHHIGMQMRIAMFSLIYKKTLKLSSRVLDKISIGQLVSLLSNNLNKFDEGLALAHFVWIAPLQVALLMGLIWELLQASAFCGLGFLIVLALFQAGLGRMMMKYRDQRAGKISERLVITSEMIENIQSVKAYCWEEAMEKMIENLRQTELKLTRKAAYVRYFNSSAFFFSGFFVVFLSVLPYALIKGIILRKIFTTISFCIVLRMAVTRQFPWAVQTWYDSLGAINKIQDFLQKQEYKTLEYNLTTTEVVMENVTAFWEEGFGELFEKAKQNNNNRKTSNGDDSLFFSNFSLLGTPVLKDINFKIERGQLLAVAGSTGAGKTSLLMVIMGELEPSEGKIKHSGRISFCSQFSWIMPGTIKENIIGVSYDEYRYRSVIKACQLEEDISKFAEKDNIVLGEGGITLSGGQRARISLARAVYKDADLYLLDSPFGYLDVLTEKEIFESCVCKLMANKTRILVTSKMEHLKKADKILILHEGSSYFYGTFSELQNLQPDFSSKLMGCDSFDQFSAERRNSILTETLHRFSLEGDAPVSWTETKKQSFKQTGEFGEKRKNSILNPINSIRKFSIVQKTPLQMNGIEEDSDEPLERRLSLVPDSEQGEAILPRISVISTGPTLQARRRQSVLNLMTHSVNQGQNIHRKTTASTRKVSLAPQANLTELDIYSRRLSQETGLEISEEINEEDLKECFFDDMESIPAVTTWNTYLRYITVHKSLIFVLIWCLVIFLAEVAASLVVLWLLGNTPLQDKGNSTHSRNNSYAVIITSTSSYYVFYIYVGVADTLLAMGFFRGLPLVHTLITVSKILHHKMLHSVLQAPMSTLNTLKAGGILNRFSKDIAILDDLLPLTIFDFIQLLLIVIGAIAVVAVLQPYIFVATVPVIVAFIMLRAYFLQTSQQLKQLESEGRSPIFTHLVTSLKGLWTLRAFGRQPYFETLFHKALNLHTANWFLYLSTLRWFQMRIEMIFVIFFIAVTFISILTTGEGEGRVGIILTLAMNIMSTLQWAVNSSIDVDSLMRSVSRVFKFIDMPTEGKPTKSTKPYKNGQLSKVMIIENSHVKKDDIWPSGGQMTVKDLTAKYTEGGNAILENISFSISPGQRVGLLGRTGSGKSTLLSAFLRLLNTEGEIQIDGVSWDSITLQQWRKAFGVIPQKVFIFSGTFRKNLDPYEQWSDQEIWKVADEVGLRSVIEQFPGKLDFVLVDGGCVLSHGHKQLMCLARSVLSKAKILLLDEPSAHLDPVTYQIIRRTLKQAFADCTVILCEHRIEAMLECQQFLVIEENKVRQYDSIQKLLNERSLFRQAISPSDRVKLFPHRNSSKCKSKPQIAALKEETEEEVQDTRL

Ent. B Max Activity (Table 8) | EC50 [1] [µM] | SMILES | further results
+++ (+++ is >60%) | < 1 | Cc1cccc(C)c1-c1cc2nc(n1)NS(=O)(=O)c1cccc(c1)C(=O)N(Cc1ccc(NC(=O)OC(C)C)cc1)[C@H](CC(C)(C)C)CO2 [Compound 508] | 
+++ (+++ is >60%) | < 1 | CNC(=O)c1ccc(CN2C(=O)c3cccc(c3)S(=O)(=O)Nc3nc(cc(-c4c(C)cccc4C)n3)OC[C@H]2CC(C)(C)C)nc1 [Compound 397] | 
++ (++ is 30-60%) | < 1 | Cc1cccc(C)c1-c1cc2nc(n1)NS(=O)(=O)c1cccc(c1)C(=O)N(Cc1ccc(O)nn1)[C@H](CC(C)(C)C)CO2 [Compound 1097] | 
+++ (+++ is >60%) | < 1 | Cc1cccc(C)c1-c1cc2nc(n1)NS(=O)(=O)c1cccc(c1)C(=O)N(Cc1ccc(C(N)=O)cn1)[C@H](CC(C)(C)C)CO2 [Compound 398] | 
++ (++ is 30-60%) | < 1 | Cc1cccc(C)c1-c1cc2nc(n1)NS(=O)(=O)c1cccc(c1)C(=O)N(CCc1ccc(C(N)=O)cc1)[C@H](CC(C)(C)C)CO2 [Compound 396] | 
+++ (+++ is >60%) | < 1 | Cc1cccc(C)c1-c1cc2nc(n1)NS(=O)(=O)c1cccc(c1)C(=O)N(Cc1cccc(NC(=O)OC(C)C)c1)[C@H](CC(C)(C)C)CO2 [Compound 507] | 
+++ (+++ is >60%) | < 1 | Cc1cccc(C)c1-c1cc2nc(n1)NS(=O)(=O)c1cccc(c1)C(=O)N(Cc1ccc(CC(C)(C)O)cc1)[C@H](CC(C)(C)C)CO2 [Compound 848] | 
+++ (+++ is >60%) | < 1 | Cc1cccc(C)c1-c1cc2nc(n1)NS(=O)(=O)c1cccc(c1)C(=O)N(CCc1ccc(C(=O)N(C)C)cc1)[C@H](CC(C)(C)C)CO2 [Compound 394] | 
+++ (+++ is >60%) | < 1 | Cc1cccc(C)c1-c1cc2nc(n1)NS(=O)(=O)c1cccc(n1)C(=O)N(Cc1ccc(C(C)(C)O)cc1)[C@H](CC(C)(C)C)CO2 [Compound 1092] | 

Second part, the compound before the results:

SMILES | Ent. B Max Activity (Table 8) | EC50 [1] [µM] | further results
Cc1cccc(C)c1-c1cc2nc(n1)NS(=O)(=O)c1cccc(c1)C(=O)N(C)CC(c1ccc(CC3(C(F)(F)F)CC3)cn1)O2 (single isomer, unassigned) [Compound 105, 6-(2,6-dimethylphenyl)-12-methyl-10-(5-{[1-(trifluoromethyl)cyclopropyl]methyl}pyridin-2-yl)-9-oxa-2λ^6-thia-3,5,12,19-tetraazatricyclo[12.3.1.14,8]nonadeca-1(17),4(19),5,7,14(18),15-hexaene-2,2,13-trione] | + (+ is <30%) | < 1 | 
CC(=O)Nc1cccc(CN2C(=O)c3cccc(c3)S(=O)(=O)Nc3nc(cc(-c4c(C)cccc4C)n3)OC[C@H]2CC(C)(C)C)n1 [Compound 391] |  |  | Ent. B Max Activity (%) (Table 9): +++ (+++ is >600%); EC50 (Table 9): < 1 µM
Cc1cccc(C)c1-c1cc2nc(n1)NS(=O)(=O)c1cc(nn1C)C(=O)N(Cc1ccc(C(C)(C)O)cc1)[C@H](CC(C)(C)C)CO2 [Compound 927] | ++ (++ is 30-60%) | < 1 | 
Cc1cccc(C)c1-c1cc2nc(n1)NS(=O)(=O)c1cccc(c1)C(=O)N(CCOC(F)(F)F)[C@H](CC(C)C)CO2 [Compound 1103] |  |  | Ent. B Max Activity (Table 7): +++ (+++ is >60%); EC50 [2]: < 1 µM
Cc1cccc(C)c1-c1cc2nc(n1)NS(=O)(=O)c1cccc(c1)C(=O)N(Cc1ccc(CC(N)=O)cc1)[C@H](CC(C)(C)C)CO2 [Compound 847] |  |  | Ent. B Max Activity (%) (Table 9): +++ (+++ is >600%); EC50 (Table 9): < 1 µM
Cc1cccc(C)c1-c1cc2nc(n1)NS(=O)(=O)c1cc(n(C)n1)C(=O)N(Cc1ncccn1)[C@H](CC(C)(C)C)CO2 [Compound 929] | +++ (+++ is >60%) | < 1 | 
Cc1cccc(C)c1-c1cc2nc(n1)NS(=O)(=O)c1cccc(c1)C(=O)N(CCCN(C)C)[C@H](CC(C)C)CO2 [Compound 411] |  |  | Ent. B Max Activity (Table 7): +++ (+++ is >60%); EC50 [2]: < 1 µM
CC(=O)N(C)CCN1C(=O)c2cccc(c2)S(=O)(=O)Nc2nc(cc(-c3c(C)cccc3C)n2)OC[C@H]1CC(C)C [Compound 405] | +++ (+++ is >60%) | < 1 | 
Cc1cccc(C)c1-c1cc2nc(n1)NS(=O)(=O)c1cccc(c1)C(=O)N(CCCC(N)=O)[C@H](CC(C)C)CO2 [Compound 407] |  |  | Ent. B Max Activity (Table 7): +++ (+++ is >60%); EC50 [2]: 1 to 3 µM
Cc1cccc(C)c1-c1cc2nc(n1)NS(=O)(=O)c1cccc(c1)C(=O)N(CC(C)(C)C)[C@H](CC(C)(C)C)CO2 [Compound 399] |  |  | Ent. B Max Activity (%) (Table 9): +++ (+++ is >600%); EC50 (Table 9): < 1 µM
Cc1cccc(C)c1-c1cc2nc(n1)NS(=O)(=O)c1cccc(c1)C(=O)N(Cc1ccnc(N)c1)[C@H](CC(C)(C)C)CO2 [Compound 61, (11R)-12-[(2-Amino-4-pyridyl)methyl]-6-(2,6-dimethylphenyl)-11-(2,2-dimethylpropyl)-2,2-dioxo-9-oxa-2λ^6-thia-3,5,12,19-tetrazatricyclo[12.3.1.14,8]nonadeca-1(18),4(19),5,7,14,16-hexaen-13-one] |  |  | Ent. B Max Activity (%) (Table 9): +++ (+++ is >600%); EC50 (Table 9): < 1 µM
Cc1cccc(C)c1-c1cc2nc(n1)NS(=O)(=O)c1cccc(c1)C(=O)N(Cc1ncccn1)[C@H](CC(C)(C)O)CO2 [Compound 658] | +++ (+++ is >60%) | 1 to 3 | 
Cc1cccc(C)c1-c1cc2nc(n1)NS(=O)(=O)c1cccc(c1)C(=O)N(Cc1ccc(-c3csc(OC(C)C)n3)cc1)[C@H](CC(C)(C)C)CO2 [Compound 318] |  |  | Ent. B Max Activity (%) (Table 9): +++ (+++ is >600%); EC50 (Table 9): < 1 µM
Cc1cccc(C)c1-c1cc2nc(n1)NS(=O)(=O)c1cccc(c1)C(=O)N(CC1CCC(C)(O)CC1)[C@H](CC(C)(C)C)CO2 (single isomer, unassigned) [Compound 150] | +++ (+++ is >60%) | < 1 | 
Cc1cccc(C)c1-c1cc2nc(n1)NS(=O)(=O)c1cc(nn1C)C(=O)N(Cc1ccncn1)[C@H](CC(C)(C)C)CO2 [Compound 932] | + (+ is <30%) | < 1 | 
Cc1cccc(C)c1-c1cc2nc(n1)NS(=O)(=O)c1cccc(c1)C(=O)N(Cc1ccc(S(F)(F)(F)(F)F)cc1)[C@H](CC(C)(C)C)CO2 [Compound 801] |  |  | Ent. B Max Activity (%) (Table 9): +++ (+++ is >600%); EC50 (Table 9): < 1 µM
Cc1cccc(C)c1-c1cc2nc(n1)NS(=O)(=O)c1cccc(c1)C(=O)N(CCCOC(F)(F)F)[C@H](CC(C)C)CO2 [Compound 42, (11R)-6-(2,6-Dimethylphenyl)-11-isobutyl-2,2-dioxo-12-[3-(trifluoromethoxy)propyl]-9-oxa-2λ^6-thia-3,5,12,19-tetrazatricyclo[12.3.1.14,8]nonadeca-1(18),4(19),5,7,14,16-hexaen-13-one] | +++ (+++ is >60%) | < 1 | 
Cc1cccc(C)c1-c1cc2nc(n1)NS(=O)(=O)c1cccc(c1)C(=O)N(Cc1ccc3c(c1)C(=O)NC3)[C@H](CC(C)(C)C)CO2 [Compound 792] |  |  | Ent. B Max Activity (%) (Table 9): +++ (+++ is >600%); EC50 (Table 9): < 1 µM
Cc1cccc(C)c1-c1cc2nc(n1)NS(=O)(=O)c1cccc(c1)C(=O)N(Cc1ncc(F)cn1)[C@H](CC(C)(C)C)CO2 [Compound 804] |  |  | Ent. B Max Activity (%) (Table 9): +++ (+++ is >600%); EC50 (Table 9): < 1 µM
